In the experiment the test system is HDAC. Nature of the experiment: Inhibitory activity against HDAC (BIOMOL Quantizyme Assay system, Fluor de Lys substrate). It is filed as biochemical. The settings on record: HeLa nuclear extract as source of HDAC enzymes, enzyme reaction 1 hr. Here is the method: HDAC activity was analyzed using BIOMOL Quantizyme™ Assay system which comprised two steps of 1) enzyme reaction between HDAC and a substrate and 2) determination of the level of HDAC inhibitory activity.
(§1) 0.5 μl of HeLa nuclear organic layer (10 μM) (a source of HDAC enzymes) was then added thereto to a final concentration of 100 nM. The enzyme reaction was carried out for 1 hr.
Subsequently, in step 2), 2 μM tricostatin A was added to 50 μl of Flour de Lys™ developer, followed by allowing the mixture to react at room temperature for 15 minutes. The light excited at 355 nm and emitted at 460 nm from the fluorophore was measured with a fluorometric plate reader. The intensity of the fluorescence increases as the enzyme activity is higher. The HDAC inhibitory activity of each of the test compounds was determined and compared with that of the control.
0.5 μl of HeLa nuclear organic layer (10 μM) (a source of HDAC enzymes) was then added thereto to a final concentration of 100 nM, The enzyme reaction was carried out for 1 hr.
as §1, §1

Setting [1] is: Table 1, formula (1) series, read-out: IC50 (HDAC inhibitory concentration).
The mark [2] stands for this setting: Table 3, formula (2) series, read-out: IC50 (HDAC inhibitory concentration).
Setting [3] is: Table 5, formula (3) series, read-out: Inhibitory conc. (IC50, μM/ml).
Where [4] appears, read: Table 7, formula (4) series, read-out: HDAC Inhibitory conc. (IC50, μM/ml).

The structures appear in SMILES notation. Where two headings read alike, the source gives them in different places.

In the case of `O=C(NCCCn1ccnc1)/C(=C/c1ccc(C(=O)NO)cc1)COc1cccc2ccccc12` [Example 1-2, (E)-4-(3-(3-(1H-Imidazol-1-yl)propylamino)-2-((naphthalen-1-yloxy)methyl)-3-oxopropenyl)-N-hydroxybenzamide], the IC50 under setting [1] turned out to be 0.028 µM.

For the molecule `COc1ccc(CCNC(=O)/C(=C/c2ccc(C(=O)NO)cc2)COc2cccc3ccccc23)cc1` [Example 1-3, (E)-4-(3-(4-Methoxyphenethylamino)-2-((naphthalen-1-yloxy)methyl)-3-oxoprop-1-enyl)-N-hydroxybenzamide], the IC50 under setting [1] is 0.08 µM.

`CC(C)N(CCNC(=O)/C(=C/c1ccc(C(=O)NO)cc1)COc1cccc2ccccc12)C(C)C` [Example 1-5]: under setting [1], the IC50 was 0.014 µM.

As for `O=C(NCC1CCCO1)C(=Cc1ccc(C(=O)NO)cc1)COc1cccc2ccccc12` (centres unmarked) [Example 1-9, (E)-4-(3-(Tetrahydrofuran-2-yl)methylamino)-2-((naphthalen-1-yloxy)methyl)-3-oxoprop-1-enyl)-N-hydroxybenzamide], the IC50 under setting [1] turned out to be 0.06 µM.

As for `O=C(NCCCN1CCCC1=O)/C(=C/c1ccc(C(=O)NO)cc1)COc1cccc2ccccc12` [Example 1-11, (E)-4-(3-(3-(2-Oxopyrrolidin-1-yl)propylamino)-2-((naphthalen-1-yloxy)methyl)-3-oxoprop-1-enyl)-N-hydroxy-benzamide], under setting [1], the IC50 came out at 0.04 µM.

In the case of `COCCNC(=O)/C(=C/c1ccc(C(=O)NO)cc1)COc1cccc2ccccc12` [Example 1-14, (E)-4-(3-(2-Methoxyethylamino)-2-((naphthalen-1-yloxy)methyl)-3-oxoprop-1-enyl)-N-hydroxybenzamide], under setting [1], the IC50 was determined as 0.03 µM.

Regarding `O=C(NC1CCCCC1)/C(=C/c1ccc(C(=O)NO)cc1)COc1cccc2ccccc12` [Example 1-15, (E)-4-(3-(Cyclohexylamino)-2-((naphthalen-1-yloxy)methyl)-3-oxoprop-1-enyl)-N-hydroxybenzamide], under setting [1], the IC50 was 0.04 µM.

Take `O=C(NCc1cccs1)/C(=C/c1ccc(C(=O)NO)cc1)COc1cccc2ccccc12` [Example 1-16, (E)-4-(3-(Thiophen-2-ylmethylamino)-2-((naphthalen-1-yloxy)methyl)-3-oxoprop-1-enyl)-N-hydroxybenzamide]: the IC50 under setting [1] is 0.01 µM.

As to `O=C(NCCCN1CCOCC1)/C(=C/c1ccc(C(=O)NO)cc1)COc1cccc2ccccc12` [Example 1-18, (E)-4-(3-(3-Morpholinopropylamino)-2-((naphthalen-1-yloxy)methyl)-3-oxoprop-1-enyl)-N-hydroxybenzamide], under setting [1], the IC50 came to 0.021 µM.

For `CCOCCCNC(=O)/C(=C/c1ccc(C(=O)NO)cc1)COc1cccc2ccccc12` [Example 1-21, (E)-4-(3-(3-Ethoxypropylamino)-2-((naphthalen-1-yloxy)methyl)-3-oxoprop-1-enyl)-N-hydroxybenzamide], the IC50 under setting [1] amounted to 0.021 µM.

For the molecule `O=C(CCCC/C=C(\COc1cccc2ccccc12)C(=O)NCCc1ccc(O)cc1)NO` [Example 2-2, (E)-N8-Hydroxy-N1-(4-hydroxyphenethyl)-2-((naphthalen-1-yloxy)methyl)-2-octenediamide], the IC50 under setting [2] came out at 0.009 µM.

Take `COCC(C)NC(=O)/C(=C/CCCCC(=O)NO)COc1cccc2ccccc12` (centres unmarked) [Example 2-5, (E)-N8-Hydroxy-N1-(1-methoxypropan-2-yl)-2-((naphthalen-1-yloxy)methyl)-2-octenediamide]: the IC50 under setting [2] was found to be 0.017 µM.

In the case of `O=C(CCCC/C=C(\COc1cccc2ccccc12)C(=O)NCCc1ccc(F)cc1)NO` [Example 2-7, (E)-N1-(4-Fluorophenethyl)-N8-hydroxy-2-((naphthalen-1-yloxy)methyl)-2-octenediamide], the IC50 under setting [2] turned out to be 0.02 µM.

On to `O=C(CCCC/C=C(\COc1cccc2ccccc12)C(=O)NCCC1=CCCCC1)NO` [Example 2-9, (E)-N1-(2-Cyclohexenylethyl)-N8-hydroxy-2-((naphthalen-1-yloxy)methyl)-2-octenediamide], for which the IC50 under setting [2] was found to be 0.027 µM.

Take `O=C(CCCC/C=C(\COc1cccc2ccccc12)C(=O)NCCCN1CCCC1=O)NO` [Example 2-10, (E)-N8-Hydroxy-2-((naphthalen-1-yloxy)methyl)-N1-(3-(2-oxopyrrolidin-1-yl)propyl)-2-octenediamide]: under setting [2], the IC50 was determined as 0.016 µM.

For the molecule `O=C(CCCC/C=C(\COc1cccc2ccccc12)C(=O)NCc1ccc(OC(F)(F)F)cc1)NO` [Example 2-17, (E)-N8-Hydroxy-2-((naphthalen-1-yloxy)methyl)-N1-(4-(trifluoromethoxy)benzyl)-2-octenediamide], under setting [2], the IC50 was 0.007 µM.

Turning to `O=C(CCCC/C=C(\COc1cccc2ccccc12)C(=O)NC1CCN(CC2CCCCC2)C1)NO` (centres unmarked) [Example 2-18, (E)-N1-(1-(Cyclohexylmethyl)pyrrolidin-3-yl)-N8-hydroxy-2-((naphthalen-1-yloxy)methyl)-2-octenediamide], the IC50 under setting [2] was 0.01 µM.

With `O=C(CCCC/C=C(\COc1cccc2ccccc12)C(=O)NC1CCN(C(=O)C2CCCCC2)C1)NO` (centres unmarked) [Example 2-22, (E)-N1-(1-(Cyclohexanecarbonyl)pyrrolidin-3-yl)-N8-hydroxy-2-((naphthalen-1-yloxy)methyl)-2-octenediamide], the IC50 under setting [2] came out at 0.022 µM.

`O=C(CCCC/C=C(\COc1cccc2ccccc12)C(=O)NC1CCNC1)NO` (centres unmarked) [Example 2-24, (E)-N8-Hydroxy-2-((naphthalen-1-yloxy)methyl)-N1-(pyrrolidin-3-yl)-2-octenediamide]: under setting [2], the IC50 is 0.012 µM.

Turning to `CCN1CCC(NC(=O)/C(=C/CCCCC(=O)NO)COc2cccc3ccccc23)CC1` [Example 2-28, (E)-N1-(1-Ethylpiperidin-4-yl)-N8-hydroxy-2-((naphthalen-1-yloxy)methyl)-2-octenediamide], the IC50 under setting [2] stood at 0.013 µM.

With `CC1CCCCN1CCCNC/C(=C/CCCCC(=O)NO)COc1cccc2ccccc12` (centres unmarked) [Example 3-5, (Z)—N-Hydroxy-8-(3-(2-methylpiperidin-1-yl)propylamino)-7-((naphthalen-1-yloxy)methyl)oct-6-enamide], the IC50 under setting [3] is 0.062 µM.

As for `CN(C)CCCNC/C(=C/CCCCC(=O)NO)COc1cccc2ccccc12` [Example 3-6, (Z)-8-(3-(Dimethylamino)propylamino)-N-hydroxy-7-((naphthalen-1-yloxy)methyl)oct-6-enamide], under setting [3], the IC50 amounted to 0.002 µM.

With `CCN(CC)CCCNC/C(=C/CCCCC(=O)NO)COc1cccc2ccccc12` [Example 3-12, (Z)-8-(3-(Diethylamino)propylamino)-N-hydroxy-7-((naphthalen-1-yloxy)methyl)oct-6-enamide], the IC50 under setting [3] stood at 0.113 µM.

As for `CC(C)N(CCNC/C(=C/CCCCC(=O)NO)COc1cccc2ccccc12)C(C)C` [Example 3-13], the IC50 under setting [3] came out at 0.042 µM.

`O=C(NO)c1ccc(/C=C(/CNCc2ccc(OC(F)(F)F)cc2)COc2cccc3ccccc23)cc1` [Example 4-3, (Z)—N-hydroxy-4-(3-(naphthalen-1-yloxy)-2-((4-(trifluoromethoxy)benzylamino)methyl)prop-1-enyl)-benzamide]: under setting [4], the IC50 was determined as 0.14 µM.

`CC(C)(C)OC(=O)N1CCC(NC/C(=C/c2ccc(C(=O)NO)cc2)COc2cccc3ccccc23)C1` (centres unmarked) [Example 4-4, t-butyl (Z)-3-(3-(4-(hydroxycarbamoyl)phenyl)-2-((naphthalen-1-yloxy)methyl)allylamino)-pyrrolidine-1-carboxylate]: the IC50 under setting [4] was 0.208 µM.

The record behind these values is patent US8053435B2, “Naphthalenyloxypropenyl derivatives having inhibitory activity against histone deacetylase and pharmaceutical composition comprising the same” (Korea Research Institute of Chemical Technology, priority 2006, dated 2011).
